From patent publication US20260285853A1, “COMPOUNDS AND METHODS FOR MODULATING SPLICING” (REMIX THERAPEUTICS INC., priority 2023, published 2026)

Legend:
Type in all cases: cell-based
[1] = system: MYB mRNA; assay: Splicing RT-qPCR assay (THP), Table 2A
[2] = system: HTT mRNA; assay: Splicing RT-qPCR assay, canonical (CJ) and alternative (AJ) junction mRNA, K562 cells; settings: Homo sapiens, K562.3 cells, 24 hours; for AC50: read-out: HTT AJ (AC50, increase in AJ mRNA); for IC50: read-out: HTT CJ (IC50, decrease in CJ mRNA)
Procedure, shortened: (§1)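 Readout is one-step RT-qPCR of canonical and alternative exon junctions, housekeeper-normalized (GAPDH or GUSB), ΔΔCt against DMSO giving RQ and percentage response over set ΔCt assay windows. Compounds dosed 24 h to K562 cells, 11 points, 3-fold, max 10 uM, DMSO ≤0.25%.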

[3] = system: MYB mRNA; assay: as above; settings: Homo sapiens, K562.3 cells, 24 hours; for AC50: read-out: MYB AJ (AC50, increase in AJ mRNA); for IC50: read-out: MYB CJ (IC50, decrease in CJ mRNA)
Procedure, shortened: as §1

[4] = system: HTT mRNA; assay: Splicing RT-qPCR assay (THP), Table 2A
[5] = Table 2A (THP), AJ mRNA increase, read-out: MYB AJ (increase in alternative junction mRNA, AC50)
[6] = Table 2A (THP), CJ mRNA decrease, read-out: MYB CJ (decrease in canonical junction mRNA, IC50)
[7] = Table 2A (THP), AJ mRNA increase, read-out: HTT AJ (increase in alternative junction mRNA, AC50)
[8] = Table 2A (THP), CJ mRNA decrease, read-out: HTT CJ (decrease in canonical junction mRNA, IC50)
[9] = Table 2A, THP, MYB alternative junction (AJ) mRNA, read-out: MYB AJ (AC50, increase in alternative junction mRNA)
[10] = Table 2A, THP, MYB canonical junction (CJ) mRNA, read-out: MYB CJ (IC50, decrease in canonical junction mRNA)
[11] = Table 2A, THP, HTT alternative junction (AJ) mRNA, read-out: HTT AJ (AC50, increase in alternative junction mRNA)
[12] = Table 2A, THP, HTT canonical junction (CJ) mRNA, read-out: HTT CJ (IC50, decrease in canonical junction mRNA)

Structure (SMILES)	IC50 [1, 6]	IC50 [2]	IC50 [3]	IC50 [4, 8]	IC50 [1, 10]	IC50 [4, 12]	AC50 [1, 5]	AC50 [2]	AC50 [3]	AC50 [4, 7]	AC50 [1, 9]	AC50 [4, 11]
CN[C@H]1CCN(c2ccc(C(=O)Nc3cc(F)c4nc(C)cn4c3)c3nn(C)cc23)[C@H]1C (single isomer, unassigned) [Compound 152]	1000 to 10000 nM	> 10000 nM	1000 to 10000 nM	> 10000 nM	–	–	> 10000 nM	> 10000 nM	1000 to 10000 nM	> 10000 nM	–	–
CCNC1CCN(c2ccc(C(=O)Nc3cc4cn(C)nc4cc3OC)c3[nH]ccc23)CC1 [Compound 178, 4-[4-(ethylamino)-1-piperidyl]-N-(6-methoxy-2-methyl-indazol-5-yl)-1H-indole-7-carboxamide]	> 10000 nM	> 10000 nM	> 10000 nM	> 10000 nM	–	–	> 10000 nM	> 10000 nM	> 10000 nM	> 10000 nM	–	–
CCN[C@@H]1CCN(c2cc(O)c(C(=O)Nc3cc(F)c4nc(C)cn4c3)c3nn(C)cc23)C1 [Compound 144, 4-[3-(ethylamino)pyrrolidin-1-yl]-N-(8-fluoro-2-methyl-imidazo[1,2-a]pyridin-6-yl)-6-hydroxy-2-methyl-indazole-7-carboxamide]	< 100 nM	> 10000 nM	< 100 nM	> 10000 nM	–	–	< 100 nM	> 10000 nM	< 100 nM	> 10000 nM	–	–
COc1c(NC(=O)c2c(F)cc(N3CCNCC3)c3cn[nH]c23)cn2cc(C)nc2c1F [Compound 607, 6-fluoro-N-(8-fluoro-7-methoxy-2-methyl-imidazo[1,2-a]pyridin-6-yl)-4-piperazin-1-yl-1H-indazole-7-carboxamide]	–	100 to 1000 nM	< 100 nM	–	< 100 nM	100 to 1000 nM	–	1000 to 10000 nM	< 100 nM	–	< 100 nM	1000 to 10000 nM
CN[C@H]1CCN(c2ccc(C(=O)Nc3cc(F)c4nc(C)cn4c3)c3nnn(C)c23)C1 [Compound 166, (S)-N-(8-fluoro-2-methylimidazo-[1,2-a]pyridin-6-yl)-1-methyl-7-(3-(methylamino)pyrrolidin-1-yl)-1H-benzo[d]-[1,2,3]triazole-4-carboxamide]	1000 to 10000 nM	> 10000 nM	100 to 1000 nM	> 10000 nM	–	–	100 to 1000 nM	> 10000 nM	100 to 1000 nM	> 10000 nM	–	–
Cc1cn2cc(NC(=O)c3c(F)cc(N4CCNCC4)c4occc34)cc(F)c2n1 [Compound 247, 5-fluoro-N-(8-fluoro-2-methylimidazo-[1,2-a]pyridin-6-yl)-7-piperazin-1-yl-benzofuran-4-carboxamide]	> 10000 nM	> 10000 nM	> 10000 nM	> 10000 nM	–	–	> 10000 nM	> 10000 nM	> 10000 nM	> 10000 nM	–	–
CN[C@H]1CCN(c2c(O)cc(C(=O)Nc3cc(F)c4nc(C)cn4c3)c3nn(C)cc23)C1 [Compound 149, N-(8-fluoro-2-methyl-imidazo[1,2-a]pyridin-6-yl)-5-hydroxy-2-methyl-4-[(3S)-3-(methylamino)pyrrolidin-1-yl]-indazole-7-carboxamide]	1000 to 10000 nM	1000 to 10000 nM	1000 to 10000 nM	> 10000 nM	–	–	> 10000 nM	> 10000 nM	1000 to 10000 nM	> 10000 nM	–	–
Cc1cn2cc(NC(=O)c3c(O)cc(N4CC[C@@H](NC5CC5)C4)c4cn(C)nc34)cc(F)c2n1 [Compound 288, 4-[(3R)-3-(cyclopropylamino)-pyr-rolidin-1-yl]-N-(8-fluoro-2-methyl-imidazo[1,2-a]pyridin-6-yl)-6-hydroxy-2-methyl-indazole-7-carboxamide]	< 100 nM	> 10000 nM	< 100 nM	> 10000 nM	–	–	< 100 nM	> 10000 nM	< 100 nM	> 10000 nM	–	–
CN[C@@H]1CCN(c2ccc(C(=O)Nc3cc(F)c4nc(C)cn4c3)c3nn(C)cc23)[C@@H]1C (single isomer, unassigned) [Compound 153]	< 100 nM	100 to 1000 nM	< 100 nM	100 to 1000 nM	–	–	< 100 nM	1000 to 10000 nM	< 100 nM	100 to 1000 nM	–	–
CCNC1CCN(c2ccc(C(=O)Nc3cc(F)c4nc(CO)cn4c3)c3nn(C)cc23)CC1 [Compound 193, 4-[4-(ethylamino)-1-piperidyl]-N-[8-fluoro-2-(hydroxymethyl)imidazo[1,2-a]pyridin-6-yl]-2-methyl-indazole-7-carboxamide]	100 to 1000 nM	> 10000 nM	100 to 1000 nM	1000 to 10000 nM	–	–	100 to 1000 nM	> 10000 nM	1000 to 10000 nM	1000 to 10000 nM	–	–
COCC1(N[C@H]2CCN(c3ccc(C(=O)Nc4cc(F)c5nc(C)cn5c4)c4nn(C)cc34)C2)CC1 [Compound 118, (S)—N-(8-fluoro-2-methylimidazo[1,2-a]pyridin-6-yl)-4-(3-((1-(methoxymethyl)cyclopropyl)amino)pyrrolidin-1-yl)-2-methyl-2H-indazole-7-carboxamide]	100 to 1000 nM	1000 to 10000 nM	1000 to 10000 nM	> 10000 nM	–	–	1000 to 10000 nM	> 10000 nM	1000 to 10000 nM	> 10000 nM	–	–
CCNC1CCN(c2ccc(C(=O)Nc3ccc4nc(C)cn4c3)c3nn(C)cc23)CC1 [Compound 176, 4-[4-(ethylamino)-1-piperidyl]-2-methyl-N-(2-methylimidazo[1,2-a]pyridin-6-yl)-indazole-7-carboxamide]	100 to 1000 nM	1000 to 10000 nM	100 to 1000 nM	> 10000 nM	–	–	100 to 1000 nM	> 10000 nM	100 to 1000 nM	1000 to 10000 nM	–	–

Second part, led by results:

IC50 [1, 6]	IC50 [2]	IC50 [3]	IC50 [4, 8]	IC50 [1, 10]	IC50 [4, 12]	Structure (SMILES)	AC50 [1, 5]	AC50 [2]	AC50 [3]	AC50 [4, 7]	AC50 [1, 9]	AC50 [4, 11]
100 to 1000 nM	> 10000 nM	100 to 1000 nM	> 10000 nM	–	–	CCNC1CCN(c2ccc(C(=O)Nc3cc(F)c4nc(C)cn4c3)c3nnn(C)c23)CC1 [Compound 199, 7-[4-(ethylamino)-1-piperidyl]-N-(8-fluoro-2-methylimidazo[1,2-a]-pyridin-6-yl)-1-methylbenzotriazole-4-carboxamide]	100 to 1000 nM	> 10000 nM	100 to 1000 nM	> 10000 nM	–	–
< 100 nM	100 to 1000 nM	< 100 nM	100 to 1000 nM	–	–	Cc1cn2cc(NC(=O)c3ccc(N4CCC(NC5CC5)CC4)c4cc(C)nn34)cc(F)c2n1 [Compound 209, 4-[4-(cyclopropylamino)-1-piperidyl]-N-(8-fluoro-2-methyl-imidazo[1,2-a]pyridin-6-yl)-2-methyl-pyrazolo[1,5-a]pyridine-7-carboxamide]	< 100 nM	100 to 1000 nM	< 100 nM	100 to 1000 nM	–	–
< 100 nM	100 to 1000 nM	< 100 nM	100 to 1000 nM	–	–	Cc1cn2cc(NC(=O)c3ccc(N4CCC(NC5CC56CC6)CC4)c4cn(C)nc34)cc(F)c2n1 (stereo not drawn) [Compound 203, N-(8-fluoro-2-methyl-imidazo[1,2-a]-pyridin-6-yl)-2-methyl-4-[4-(spiro[2.2]pentan-2-ylamino)-1-piperidyl] indazole-7-carboxamide]	< 100 nM	1000 to 10000 nM	< 100 nM	100 to 1000 nM	–	–
> 10000 nM	1000 to 10000 nM	1000 to 10000 nM	> 10000 nM	–	–	CCNC1CCN(c2ccc(C(=O)Nc3cc(F)c4nc(COC)cn4c3)c3nn(C)cc23)CC1 [Compound 284, 4-[4-(ethylamino)-1-piperidyl]-N-[8-fluoro-2-(methoxymethyl)imidazo[1,2-a]pyridin-6-yl]-2-methyl-indazole-7-carboxamide]	1000 to 10000 nM	> 10000 nM	1000 to 10000 nM	> 10000 nM	–	–
< 100 nM	100 to 1000 nM	100 to 1000 nM	1000 to 10000 nM	–	–	CCNC1CCN(c2ccc(C(=O)Nc3cc(OC)c4nc(C)cn4c3)c3nn(C)cc23)CC1 [Compound 175, 4-(4-(ethylamino)piperidin-1-yl)-N-(8-methoxy-2-methyl-imidazo-[1,2-a]pyridin-6-yl)-2-methyl-2H-indazole-7-carboxamide]	< 100 nM	1000 to 10000 nM	100 to 1000 nM	1000 to 10000 nM	–	–
–	1000 to 10000 nM	100 to 1000 nM	–	100 to 1000 nM	1000 to 10000 nM	Cc1cn2cc(NC(=O)c3ccc(N4C[C@@H](C)N[C@@H](C)C4)c4c3nnn4C)cc(F)c2n1 [Compound 635]	–	1000 to 10000 nM	100 to 1000 nM	–	100 to 1000 nM	1000 to 10000 nM
